This is an account of results in patent publication US8492376B2, “Heteroaryl-cyclohexyl-tetraazabenzo[e]azulenes” (Hoffmann-La Roche Inc., priority 2010, dated 2013).

Counter-ions that a name gives are not always drawn.

The target of the experiment is T1, human V1a receptor (Homo sapiens, UniProt P37288).
T1 construct: expressed in transfected cells; host or cells: HEK293 cells, transiently transfected; cell membranes
The experiment in a line: human V1a receptor binding studies (3H-Vasopressin, SPA beads). The conditions noted are these: membranes from HEK293 cells transiently transfected with human V1a receptor, Ki calculated from IC50 by the Cheng-Prussoff equation, read-out: pKi (hV1a) (converted). The method, then:
The human V1a receptor was cloned by RT-PCR from total human liver RNA. The coding sequence was subcloned in an expression vector after sequencing to confirm the identity of the amplified sequence. […] Cell membranes were prepared from HEK293 cells transiently transfected with the expression vector and grown in 20 liter fermenters with the following protocol.
50 g of cells are resuspended in 30 ml freshly prepared ice cold Lyses buffer (50 mM HEPES, 1 mM EDTA, 10 mM magnesium dichloride adjusted to pH=7.4+complete cocktail of protease inhibitor (Roche Diagnostics)). Homogenized with Polytron for 1 min and solicited on ice for 2×2 minutes at 80% intensity (Vibrate solicitor). The preparation is centrifuged 20 min at 500 g at 4° C., the pellet is discarded and the supernatant centrifuged 1 hour at 43′000 g at 4° C. (19′000 rpm). The pellet is resuspended in 12.5 ml Lyses buffer+12.5 ml sucrose 20% and homogenized using a Polytron for 1-2 min. The protein concentration is determined by the Bradford method and aliquots are stored at −80° C. until use. For binding studies 60 mg Yttrium silicate SPA beads (Habersham®) are mixed with an aliquot of membrane in binding buffer (50 mM Tris, 120 mM sodium chloride, 5 mM potassium chloride, 2 mM calcium dichloride, 10 mM magnesium dichloride) for 15 minutes with mixing. 50 μl of bead/membrane mixture is then added to each well of a 96 well plate, followed by 50 μl of 4 nM 3H-Vasopressin (American Radiolabeled Chemicals). For total binding measurement 100 μl of binding buffer are added to the respective wells, for non-specific binding 100 μl of 8.4 mM cold vasopressin and for compound testing 100 μl of a serial dilution of each compound in 2% dimethyl sulfoxide. The plate is incubated 1 h at room temperature, centrifuged 1 min at 1000 g and counted on a Packard Top-Count. Non-specific binding counts are subtracted from each well and data is normalized to the maximum specific binding set at 100%. To calculate an IC50 the curve is fitted using a non-linear regression model (XLfit) and the Ki is calculated using the Cheng-Prussoff equation.

T1 sequence (P37288 whole entry): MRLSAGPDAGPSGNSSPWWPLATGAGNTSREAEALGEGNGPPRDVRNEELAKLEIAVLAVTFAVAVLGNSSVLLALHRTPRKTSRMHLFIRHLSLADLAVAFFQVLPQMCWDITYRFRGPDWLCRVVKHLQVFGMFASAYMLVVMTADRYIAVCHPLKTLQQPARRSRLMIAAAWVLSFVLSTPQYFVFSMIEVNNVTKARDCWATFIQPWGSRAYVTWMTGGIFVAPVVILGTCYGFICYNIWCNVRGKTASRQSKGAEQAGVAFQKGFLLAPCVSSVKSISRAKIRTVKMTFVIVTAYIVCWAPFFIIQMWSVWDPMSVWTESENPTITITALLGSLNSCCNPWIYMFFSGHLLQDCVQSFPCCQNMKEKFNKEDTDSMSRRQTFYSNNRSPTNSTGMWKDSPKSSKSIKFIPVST

As to `CCc1cccc([C@H]2CC[C@H](c3nnc4n3-c3ccc(Cl)cc3CN(C(=O)OC(C)(C)C)C4)CC2)n1` [Example 7, trans-8-Chloro-1-[4-(6-ethyl-pyridin-2-yl)-cyclohexyl]-4H,6H-2,3,5,10b-tetraaza-benzo[e]azulene-5-carboxylic acid tert-butyl ester], the Ki was 1 nM.

In the case of `CN1Cc2cc(Cl)ccc2-n2c(nnc2[C@H]2CC[C@H](c3ccccn3)CC2)C1` [Example 3, trans-8-Chloro-5-methyl-1-(4-pyridin-2-yl-cyclohexyl)-5,6-dihydro-4H-2,3,5,10b-tetraaza-benzo[e]azulene], the Ki was 0.794 nM.

Turning to `Fc1cccnc1[C@H]1CC[C@H](c2nnc3n2-c2ccc(Cl)cc2CN(CC(F)F)C3)CC1` [Example 34, trans-8-Chloro-5-(2,2-difluoro-ethyl)-[4-(3-fluoro-pyridin-2-yl)-cyclohexyl]-5,6-dihydro-4H-2,3,5,10b-tetraaza-benzo[e]azulene], the Ki was 0.186 nM.

`Fc1cccnc1[C@H]1CC[C@@H](c2nnc3n2-c2ccc(Cl)cc2CNC3)CC1` [Example 46, cis-8-Chloro-1-[4-(3-fluoro-pyridin-2-yl)-cyclohexyl]-5,6-dihydro-4H-2,3,5,10b-tetraaza-benzo[e]azulene]: the Ki is 200 nM.

In the case of `CN1Cc2cc(Cl)ccc2-n2c(nnc2[C@H]2CC[C@H](c3cccc(F)n3)CC2)C1` [Example 21, trans-8-Chloro-1-[4-(6-fluoro-pyridin-2-yl)-cyclohexyl]-5-methyl-5,6-dihydro-4H-2,3,5,10b-tetraaza-benzo[e]azulene], the Ki was 1.82 nM.

`CC(C)(C)OC(=O)N1Cc2cc(Cl)ccc2-n2c(nnc2[C@H]2CC[C@H](c3cccnc3F)CC2)C1` [Example 54, trans-8-Chloro-1-[4-(2-fluoro-pyridin-3-yl)-cyclohexyl]-4H,6H-2,3,5,10b-tetraaza-benzo[e]azulene-5-carboxylic acid tert-butyl ester]: the Ki is 1 nM.

Regarding `Cc1cncc([C@H]2CC[C@H](c3nnc4n3-c3ccc(Cl)cc3CN(C)C4)CC2)n1` [Example 74, trans-8-Chloro-5-methyl-1-[4-(6-methyl-pyrazin-2-yl)-cyclohexyl]-5,6-dihydro-4H-2,3,5,10b-tetraaza-benzo[e]azulene], the Ki was 11.2 nM.

Consider `CN1Cc2cc(Cl)ccc2-n2c(nnc2[C@H]2CC[C@H](c3cccnc3F)CC2)C1` [Example 56, trans-8-Chloro-1-[4-(2-fluoro-pyridin-3-yl)-cyclohexyl]-5-methyl-5,6-dihydro-4H-2,3,5,10b-tetraaza-benzo[e]azulene], for which the Ki is 8.13 nM.

Turning to `Clc1ccc2c(c1)CNCc1nnc([C@H]3CC[C@H](c4ncccn4)CC3)n1-2` [Example 59, trans-8-Chloro-1-(4-pyrimidin-2-yl-cyclohexyl)-5,6-dihydro-4H-2,3,5,10b-tetraaza-benzo[e]azulene], the Ki is 9.33 nM.

As for `CC(C)(C)OC(=O)N1Cc2cc(Cl)ccc2-n2c(nnc2[C@H]2CC[C@H](c3cc(Cl)ccn3)CC2)C1` [Example 25, trans-8-Chloro-1-[4-(4-chloro-pyridin-2-yl)-cyclohexyl]-4H,6H-2,3,5,10b-tetraaza-benzo[e]azulene-5-carboxylic acid tert-butyl ester], the Ki is 0.427 nM.

In the case of `CCN1Cc2cc(Cl)ccc2-n2c(nnc2[C@H]2CC[C@H](c3ncccc3F)CC2)C1` [Example 31, trans-8-Chloro-5-ethyl-[4-(3-fluoro-pyridin-2-yl)-cyclohexyl]-5,6-dihydro-4H-2,3,5,10b-tetraaza-benzo[e]azulene], the Ki is 0.562 nM.

Consider `O=C(CO)N1Cc2cc(Cl)ccc2-n2c(nnc2[C@H]2CC[C@H](c3ncccc3F)CC2)C1` [Example 38, trans-1-{8-Chloro-1-[4-(3-fluoro-pyridin-2-yl)-cyclohexyl]-4H,6H-2,3,5,10b-tetraaza-benzo[e]azulen-5-yl}-2-hydroxy-ethanone], for which the Ki was 2.29 nM.

As for `CC(C)(C)OC(=O)N1Cc2cc(Cl)ccc2-n2c(nnc2[C@H]2CC[C@H](c3cccnc3Cl)CC2)C1` [Example 51, trans-8-Chloro-1-[4-(2-chloro-pyridin-3-yl)-cyclohexyl]-4H,6H-2,3,5,10b-tetraaza-benzo[e]azulene-5-carboxylic acid tert-butyl ester], the Ki was 2.19 nM.

Regarding `Cc1nccnc1[C@H]1CC[C@H](c2nnc3n2-c2ccc(Cl)cc2CN(C(=O)OC(C)(C)C)C3)CC1` [Example 75, trans-8-Chloro-1-[4-(3-methyl-pyrazin-2-yl)-cyclohexyl]-4H,6H-2,3,5,10b-tetraaza-benzo[e]azulene-5-carboxylic acid tert-butyl ester], the Ki was 1.2 nM.

Consider `Cc1cccc([C@H]2CC[C@H](c3nnc4n3-c3ccc(Cl)cc3CNC4)CC2)n1` [Example 5, trans-8-Chloro-1-[4-(6-methyl-pyridin-2-yl)-cyclohexyl]-5,6-dihydro-4H-2,3,5,10b-tetraaza-benzo[e]azulene], for which the Ki was 13.8 nM.

With `CC(C)(C)OC(=O)N1Cc2cc(Cl)ccc2-n2c(nnc2[C@H]2CC[C@H](c3cccnc3)CC2)C1` [Example 48, trans-8-Chloro-1-(4-pyridin-3-yl-cyclohexyl)-4H,6H-2,3,5,10b-tetraaza-benzo[e]azulene-5-carboxylic acid tert-butyl ester], the Ki is 0.603 nM.

For the compound `CN1Cc2cc(Cl)ccc2-n2c(nnc2[C@H]2CC[C@H](c3ncccc3Cl)CC2)C1` [Example 84, trans-8-Chloro-1-[4-(3-chloro-pyridin-2-yl)-cyclohexyl]-5-methyl-5,6-dihydro-4H-2,3,5,10b-tetraaza-benzo[e]azulene], the Ki is 0.501 nM.

For the compound `CC(C)(C)OC(=O)N1Cc2cc(Cl)ccc2-n2c(nnc2[C@H]2CC[C@H](c3ccc(F)cn3)CC2)C1` [Example 22, trans-8-Chloro-1-[4-(5-fluoro-pyridin-2-yl)-cyclohexyl]-4H,6H-2,3,5,10b-tetraaza-benzo[e]azulene-5-carboxylic acid tert-butyl ester], the Ki was 0.302 nM.

Turning to `CN1Cc2cc(Cl)ccc2-n2c(nnc2[C@H]2CC[C@H](c3ncc(F)cc3F)CC2)C1` [Example 87, trans-8-Chloro-1-[4-(3,5-difluoro-pyridin-2-yl)-cyclohexyl]-5-methyl-5,6-dihydro-4H-2,3,5,10b-tetraaza-benzo[e]azulene], the Ki is 1.29 nM.

As for `CC(=O)N1Cc2cc(Cl)ccc2-n2c(nnc2[C@H]2CC[C@H](c3ncccc3F)CC2)C1` [Example 37, trans-1-{8-Chloro-1-[4-(3-fluoro-pyridin-2-yl)-cyclohexyl]-4H,6H-2,3,5,10b-tetraaza-benzo[e]azulen-5-yl}-ethanone], the Ki is 1.62 nM.

With `CC(C)(C)OC(=O)N1Cc2cc(Cl)ccc2-n2c(nnc2[C@H]2CC[C@H](c3cnccn3)CC2)C1` [Example 69, trans-8-Chloro-1-(4-pyrazin-2-yl-cyclohexyl)-4H,6H-2,3,5,10b-tetraaza-benzo[e]azulene-5-carboxylic acid tert-butyl ester], the Ki was 0.603 nM.

`Clc1ccc2c(c1)CNCc1nnc([C@H]3CC[C@H](c4cc(Cl)ccn4)CC3)n1-2` [Example 26, trans-8-Chloro-1-[4-(4-chloro-pyridin-2-yl)-cyclohexyl]-5,6-dihydro-4H-2,3,5,10b-tetraaza-benzo[e]azulene]: the Ki was 1 nM.

Regarding `Clc1ccc2c(c1)CNCc1nnc([C@H]3CC[C@H](c4cccc(Cl)n4)CC3)n1-2` [Example 17, trans-8-Chloro-1-[4-(6-chloro-pyridin-2-yl)-cyclohexyl]-5,6-dihydro-4H-2,3,5,10b-tetraaza-benzo[e]azulene], the Ki was 2.82 nM.

For the compound `Clc1ccc2c(c1)CNCc1nnc([C@H]3CC[C@H](c4ccccn4)CC3)n1-2` [Example 2, trans-8-Chloro-1-(4-pyridin-2-yl-cyclohexyl)-5,6-dihydro-4H-2,3,5,10b-tetraaza-benzo[e]azulene dihydrochloride], the Ki is 10 nM.

As for `CC(C)c1cccc([C@H]2CC[C@H](c3nnc4n3-c3ccc(Cl)cc3CN(C)C4)CC2)n1` [Example 12, trans-8-Chloro-1-[4-(6-isopropyl-pyridin-2-yl)-cyclohexyl]-5-methyl-5,6-dihydro-4H-2,3,5,10b-tetraaza-benzo[e]azulene], the Ki was 8.51 nM.

As to `CN(C)CC(=O)N1Cc2cc(Cl)ccc2-n2c(nnc2[C@H]2CC[C@H](c3ncccc3F)CC2)C1` [Example 39, trans-1-{8-Chloro-1-[4-(3-fluoro-pyridin-2-yl)-cyclohexyl]-4H,6H-2,3,5,10b-tetraaza-benzo[e]azulen-5-yl}-2-dimethylamino-ethanone formate], the Ki was 2.51 nM.
